13 compounds from patent US5773438A, “Synthetic matrix metalloprotease inhibitors and use thereof” (Glycomed Incorporated, priority 1994, dated 1998) can be followed below.

“Also recorded” adds a separate entry of the source. Bounds are passed on as bounds.

The target of assay [1] is Recombinant neutrophil collagenase (Homo sapiens, UniProt P22894). The assay is described as follows: inhibition of recombinant neutrophil collagenase (Table 2). The class given is biochemical. The settings on record: read-out: NC inhibitory activity.
Procedure: (§6) Specifically, assay of inhibition activity can be conducted as follows. […] Assays for inhibition of human stromelysin are conducted as described by Teahan, J., et al., Biochemistry (1989) 20:8497-8501.
(§7) Assay of inhibition activity can be conducted using a fluorogenic substrate developed by Knight et al., FEBS Letters (1992) 296:263. This method uses a fluorometer to determine the rate of substrate hydrolysis in a 96 well plate format. Reaction rates are determined at several substrate concentrations, and multiple inhibitor levels. The data are analyzed by Lineweaver-Burk, Dixon and Henderson plot analyses (Enzyme Kinetics (1975) Irwin Segal (John Wiley & Sons, Inc., publishers), and as described by Henderson, Biochem J. (1972) 127:321). The substrate levels range from 10-30μM. […] Inhibitors may be assayed against purified 72 kD gelatinase, 92 kD gelatinase, neutrophil collagenase, stromelysin or other proteases as appropriate. The enzymes are activated at 37° C. with APMA (4-aminophenylmercuric acetate), and the assays are carried out at room temperature.
Another assay concerns the target Stromelysin (Homo sapiens, UniProt P08254). The assay is described as follows: inhibition of stromelysin (Table 2). It is filed as biochemical. The settings on record: read-out: Strom inhibitory activity.
The target of assay [2] is T1, Human gingival fibrblast collagenase (Homo sapiens, UniProt P03956).
T1 construct: endogenous in cells; host or cells: human gingival fibroblasts
T1 sequence (P03956 100-469): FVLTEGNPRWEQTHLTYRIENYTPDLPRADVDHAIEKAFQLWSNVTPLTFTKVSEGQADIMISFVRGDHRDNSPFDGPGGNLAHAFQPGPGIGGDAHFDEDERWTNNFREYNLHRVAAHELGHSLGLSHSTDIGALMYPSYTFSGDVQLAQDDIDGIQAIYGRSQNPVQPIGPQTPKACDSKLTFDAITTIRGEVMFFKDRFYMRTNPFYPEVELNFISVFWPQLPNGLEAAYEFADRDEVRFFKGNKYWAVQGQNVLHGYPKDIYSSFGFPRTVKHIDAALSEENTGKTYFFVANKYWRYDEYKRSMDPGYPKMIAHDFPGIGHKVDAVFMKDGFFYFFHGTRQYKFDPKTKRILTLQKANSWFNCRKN
The assay is described as follows: inhibition of human gingival fibroblast collagenase (Table 2). The class given is biochemical. The note with it: read-out: HGFC inhibitory activity.
Procedure: as §6, §7

Assay [3] addresses T2, human skin fibroblast collagenase (Homo sapiens, UniProt P03956).
T2 construct: endogenous in cells; host or cells: human skin fibroblasts
T2 sequence (P03956 100-469): T1 sequence (P03956 100-469)
As to the kind of experiment: inhibition of collagenase, synthetic thiol ester substrate, Ki (Table 1). It is filed as biochemical.
Procedure: Specifically, assay of inhibition activity can be conducted as follows. Inhibitors may be assayed against crude or purified human skin fibroblast collagenase, or purified human gingival fibroblast collagenase using the synthetic thiol ester substrate at pH 6.5 exactly as described by Kortylewicz & Galardy, J Med Chem (1990) 33:263-273, at a collagenase concentration of 1-2 nM. The candidate inhibitors are tested for their ability to inhibit crude collagenase and gelatinase from human skin fibroblasts, crude collagenase and gelatinase from purulent human neutrophils in this assay.

Assay [4] addresses T3, Natural human 72kD gelatinase (Homo sapiens, UniProt P08253).
T3 sequence (P08253 110-660): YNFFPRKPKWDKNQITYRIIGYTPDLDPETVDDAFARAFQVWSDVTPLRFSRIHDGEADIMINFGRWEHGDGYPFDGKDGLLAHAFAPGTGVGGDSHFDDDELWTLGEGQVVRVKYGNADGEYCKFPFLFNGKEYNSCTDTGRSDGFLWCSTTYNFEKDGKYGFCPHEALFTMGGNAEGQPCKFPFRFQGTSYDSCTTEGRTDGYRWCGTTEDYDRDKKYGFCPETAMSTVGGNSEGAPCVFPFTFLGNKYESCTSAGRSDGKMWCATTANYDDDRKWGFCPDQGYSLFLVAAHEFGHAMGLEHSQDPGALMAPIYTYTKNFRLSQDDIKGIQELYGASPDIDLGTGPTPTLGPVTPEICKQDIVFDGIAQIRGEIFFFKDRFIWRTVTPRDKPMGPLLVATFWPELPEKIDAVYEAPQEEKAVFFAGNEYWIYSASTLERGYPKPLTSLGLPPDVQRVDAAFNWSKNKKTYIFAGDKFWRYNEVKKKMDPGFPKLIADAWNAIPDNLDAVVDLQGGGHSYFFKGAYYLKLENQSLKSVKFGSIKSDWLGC
As to the kind of experiment: inhibition of 72kD gelatinase (Table 2). The settings on record: read-out: 72kD G inhibitory activity. It is filed as biochemical.
Procedure: as §6, §7

The next assay has as its target 92kD gelatinase (Homo sapiens, UniProt P14780). The assay is described as follows: inhibition of 92kD gelatinase (Table 2). The settings on record: read-out: 92kD G inhibitory activity. The class given is biochemical.
The subject of assay [5] is protease activity of chronic wound fluid. The assay is described as follows: Azocoll assay of protease activity in chronic wound fluid. It is filed as biochemical, human. Here is the method:
(§1) Fluids were collected from 3 types of human wounds termed closed spontaneously healing wounds, open slowly healing wounds, and open chronic wounds. In the first category were fluids collected from the chest wall of women following mastectomy surgery. Fluids from non-infected wounds that were left open for valid surgical reasons were considered open slowly healing wounds. An occlusive dressing was placed over the wound bed, and fluids were collected after 2-6 hours of occlusion. Finally, fluids were also collected from chronic open wounds by covering the wounds with occlusive dressings. Wounds were considered to be chronic if they were not clinically infected and had been open and not healing for more than 4 weeks.
(§2) The various wound fluids were assayed for matrix metalloproteinase activity using the Azocoll assay essentially as described by Chavira, et al., Analytic Biochemistry (1984), 136:446.
(§3) The fluids were centrifuged, and the supernatants filtered using a 0.45μ sterile Gelman filter. The filtrates were stored frozen at -80° C. until tested for protease activity.
(§4) The effects of four inhibitors on the protease activity present in wound fluids were determined. The inhibitors were: compounds
Stock solutions of the four inhibitors were all prepared at a concentration of 800 μg/ml. Due to different solubility properties of the inhibitors, different techniques were utilized. […] S1209 was dissolved in 1% DMSO then dissolved in 10 mM citrate, pH 5.5, containing 0.05% methyl cellulose. 39A was dissolved in propylene glycol (to give a final concentration of 2.4%) then dissolved in 1 mM CaCl2, 50 mM Tris-Cl, pH 7.8. 21A was dissolved in propylene glycol (2.4%) methyl cellulose (0.05%) and 10 mM citrate, pH 8.
The protease substrate, Azocoll, was obtained from Sigma Chemical Corporation and it is a substrate for collagenase/gelatinase-like metalloproteinase enzymes and general proteases. Clostridium histolyticum collagenase (the crude form of the enzyme) was from Worthington Biochemicals. General chemicals including TRIS buffer, DMSO, and CaCl2 were from Sigma Chemical Corporation.
(§5) Briefly, 900 μl of the Azocoll substrate suspension in buffer ([…] in 50 mM TRIS, pH 7.8, 1 mM CaCl2) was added to 1.5 ml microcentrifuge tubes then 50 μl of inhibitor (or buffer) and 50 μl of chronic wound fluid (or collagenase standard) were added to the reaction tube. The reaction tubes were placed at 37° C. in a shaker that inverted the tubes 30 times per minute. After 24 hours of incubation, the reaction tubes were centrifuges at 10,000 X g and the absorbance of the supernatant solution was measured at 520 nm with a Milton-Roy spectrophotometer. Proteolysis of Azocoll substrate generates soluble colored fragments from the insoluble Azocoll substrate. Wound fluid samples were incubated alone or with the inhibitors. Controls included incubation of the Azocoll substrate with the assay buffer to measure spontaneous degradation of the substrate. A standard curve for digestion of the Azocoll substrate was generated by incubation of the Azocoll with crude bacterial collagenase. Protease levels were expressed as net μg of collagenase equivalent per ml of chronic wound fluid. In the figures, certain of the wound fluids are referred to by an individual name.
For these experiments, due to the different solubility properties of the inhibitors, different techniques were utilized. […] S1209 was dissolved in 1% DMSO then dissolved in 10 mM citrate, pH 5.5, containing 0.05% methyl cellulose. 39A was dissolved in propylene glycol (to give a final concentration of 2.4%) then dissolved in 1 mM CaCl2, […] Tris-Cl, pH 7.8. 21A was dissolved in propylene glycol (2.4%) methyl cellulose (0.05%) and 10 mM citrate, pH 8.

For assay [6], the system named is protease activity in open and chronic wound fluids. As to the kind of experiment: Azocoll assay of protease activity in open and chronic wound fluids. The settings on record: for inhibition of Azocoll-degrading proteases in wound fluids: FIG. 6; for effect on proteolytic activity of open and chronic wound fluids: FIG. 5. It is filed as biochemical, human. Here is the method:
as §1, §2, §3, §4
These inhibitors were compared to certain other inhibitors and these were UL001 [HSCH2 CH(CH2 CH(CH3)2)CO--Phe--Ala--NH2 ] obtained from Peptides International and MP506, obtained from Elastin Products. EDTA (ethylenediamine tetraacetic acid) and PMSF (phenylmethylsulfonyl fluoride) were also studied.
as §5

Sequence of Stromelysin (P08254 100-477): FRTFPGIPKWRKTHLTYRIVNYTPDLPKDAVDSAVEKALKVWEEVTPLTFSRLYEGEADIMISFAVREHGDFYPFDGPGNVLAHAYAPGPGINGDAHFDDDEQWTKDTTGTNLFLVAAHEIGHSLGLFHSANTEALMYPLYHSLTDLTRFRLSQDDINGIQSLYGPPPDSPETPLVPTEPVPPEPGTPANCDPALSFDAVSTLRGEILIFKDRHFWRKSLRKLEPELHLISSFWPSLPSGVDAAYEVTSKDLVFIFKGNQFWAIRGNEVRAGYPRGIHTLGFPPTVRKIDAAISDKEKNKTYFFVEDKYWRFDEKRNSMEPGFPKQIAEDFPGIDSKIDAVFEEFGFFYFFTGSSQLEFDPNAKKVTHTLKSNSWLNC
Sequence of 92kD gelatinase (P14780 107-707 limits assumed): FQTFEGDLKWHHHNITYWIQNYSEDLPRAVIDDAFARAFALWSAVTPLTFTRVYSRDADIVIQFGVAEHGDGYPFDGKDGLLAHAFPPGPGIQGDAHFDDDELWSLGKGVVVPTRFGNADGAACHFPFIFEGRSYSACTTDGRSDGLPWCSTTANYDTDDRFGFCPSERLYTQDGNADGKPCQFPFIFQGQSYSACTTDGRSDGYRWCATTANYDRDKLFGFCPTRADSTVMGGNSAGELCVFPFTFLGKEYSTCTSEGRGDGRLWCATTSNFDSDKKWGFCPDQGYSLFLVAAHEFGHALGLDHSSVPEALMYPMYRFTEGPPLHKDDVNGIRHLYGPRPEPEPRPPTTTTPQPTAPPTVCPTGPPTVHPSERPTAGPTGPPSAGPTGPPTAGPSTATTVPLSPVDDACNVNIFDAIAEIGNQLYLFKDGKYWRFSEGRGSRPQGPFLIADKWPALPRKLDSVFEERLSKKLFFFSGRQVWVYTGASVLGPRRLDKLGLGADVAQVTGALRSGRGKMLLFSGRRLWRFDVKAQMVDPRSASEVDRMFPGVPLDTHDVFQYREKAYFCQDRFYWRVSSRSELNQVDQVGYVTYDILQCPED
Sequence of Recombinant neutrophil collagenase (P22894 101-467): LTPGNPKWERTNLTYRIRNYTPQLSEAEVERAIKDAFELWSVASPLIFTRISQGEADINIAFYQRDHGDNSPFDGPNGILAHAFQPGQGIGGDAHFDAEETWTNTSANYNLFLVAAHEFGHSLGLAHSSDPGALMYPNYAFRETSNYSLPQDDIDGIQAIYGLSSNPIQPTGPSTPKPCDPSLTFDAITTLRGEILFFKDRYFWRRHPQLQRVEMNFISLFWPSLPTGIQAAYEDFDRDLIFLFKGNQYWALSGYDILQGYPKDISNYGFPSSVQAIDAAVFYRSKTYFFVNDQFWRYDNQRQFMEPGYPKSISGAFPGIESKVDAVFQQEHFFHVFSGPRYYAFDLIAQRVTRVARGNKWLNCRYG
Procedure for Stromelysin: as §6, §7

Consider `CNC(=O)[C@H](Cc1c[nH]c2ccccc12)N(C)C(=O)C(CC(=O)NO)CC(C)C` (single isomer, unassigned) [Compound 9A, N-[2-isobutyl-3-(N'-hydroxyamidocarbonyl)-propanoyl]-N-methyl-L-tryptophanmethylamide], for which the Ki was 29 nM in assay [1]; over 1000 nM at Stromelysin; 5 nM in assay [2]; 500 nM in assay [3]; 32 nM in assay [4].
For the compound `CCCCCCCCCCCCNC(=O)[C@H](Cc1c[nH]c2ccccc12)NC(=O)C(CC(=O)NO)CC(C)C` (single isomer, unassigned) [Compound 19A, N-[2-isobutyl-3-(N'-hydroxyamidocarbonyl)-propanoyl]-L-tryptophan dodecylamide], the Ki worked out at 0.62 nM in assay [1]; 40 nM at Stromelysin; 1.29 nM on 92kD gelatinase; 300 nM in assay [3]; 0.37 nM in assay [4].
For `CC(C)CC(CC(=O)NO)C(=O)N[C@@H](Cc1c[nH]c2ccccc12)C(=O)NCCCCCCNC(=O)OCc1ccccc1` (stereo partly drawn) [Compound 27A, N-[L-2-isobutyl-3-(N'-hydroxyamidocarbonyl)-propanoyl]-L-tryptophan(6-phenyl-methoxycarbonyl-1-aminohexyl)amide], the Ki in assay [1] worked out at 21 nM; at Stromelysin it was 94 nM; in assay [2], 0.1 nM; in assay [3] it was 13 nM; in assay [4], 2.9 nM.
The corresponding values for `CC(C)CC(CC(=O)NO)C(=O)N[C@@H](Cc1c[nH]c2ccccc12)C(=O)NC1CCCCC1` (stereo partly drawn) [Compound 28A, N-[L-2-Isobutyl-3-(N'-hydroxyamidocarbonyl)-propanoyl]-L-tryptophan cyclohexylamide] are 1 nM, 78 nM, 0.1 nM, 50 nM and 4 nM.
As for `CC(C)C[C@H](CC(=O)O)C(=O)N[C@@H](Cc1c[nH]c2ccccc12)C(=O)NCCCN1CCOCC1` [Compound 48], the Ki in assay [1] worked out at 32 nM; on Stromelysin it was 19300 nM; on 92kD gelatinase it was 65 nM; in assay [4] it was 145 nM.
Take `CC(C)C[C@H](CC(=O)NO)C(=O)N[C@@H](Cc1c[nH]c2ccccc12)C(=O)NCCN1CCOCC1` [Compound 52, N-[2-Isobutyl-3-(N'-hydroxyamidocarbonyl)-propanoyl]-L-tryptophan-3(4-morpholinyl)-n-ethylamide]: the Ki in assay [1] stood at 0.19 nM; at Stromelysin it was 57 nM; in assay [2], 0.6 nM; on 92kD gelatinase it was 0.97 nM; in assay [4], 0.81 nM.
For `CC(C)C[C@H](CC(=O)O)C(=O)N[C@@H](Cc1c[nH]c2ccccc12)C(=O)NCc1ccccc1` [Compound 57, N-[2-Isobutyl-3-hydroxycarbonylpropanoyl]-L-tryptophan-benzylamide], in that order: 20 nM, 5140 nM, 2.2 nM, 37 nM and 57 nM.
The corresponding values for `C[C@H](NC(=O)[C@H](Cc1c[nH]c2ccccc12)NC(=O)[C@@H](CCC(=O)O)NC(=O)OC(C)(C)C)c1ccccc1` [Compound 78] are over 10000 nM, over 10000 nM, 2000 nM, over 10000 nM and over 10000 nM.
The corresponding values for `C[C@H](NC(=O)[C@H](Cc1c[nH]c2ccccc12)NC(=O)[C@@H](CCC(=O)NO)NC(=O)OC(C)(C)C)c1ccccc1` [Compound 79, Boc-D-gamma-Hydroxamidoglutamyl-L-tryptophan-(S)-methylbenzylamide] are over 10000 nM, over 10000 nM, 60 nM, 21100 nM and over 10000 nM.
For the compound `CNC(=O)C(Cc1ccc(OC)cc1)NC(=O)C(CC(=O)NO)CC(C)C` (stereo not drawn) [Compound S1209], the “inhibition of protease activity of chronic wound fluid” value in assay [5] (FIG. 7, highest concentration (800 μg/ml)) amounted to 70%. The “inhibition of Azocoll-degrading proteases in wound fluids” value (“inhibition … in wound fluids” below) in assay [6] was “very effectively; also recorded: very effective inhibitors”.
`O=C(O)CN(CCN(CC(=O)O)CC(=O)O)CC(=O)O` [EDTA, ethylenediamine tetraacetic acid, reference compound]: in assay [5] (FIG. 4), the “effective concentrations (order of magnitude)” value is reported as “mM” and the “inhibition of protease activity of a chronic wound fluid” value is on record as “effectively inhibited”. In assay [5] (FIG. 4, EDTA at mM concentrations), the “reduction of protease activity” value is recorded as “approximately 96%”. Moreover, in assay [6], the “effect on proteolytic activity of open and chronic wound fluids” value is “very effective inhibitors”; the “inhibition … in wound fluids” value is listed as “very effectively”. In assay [6] (fluids with high levels of Azocoll-degrading protease activity), the “reduction of proteolytic activity in open or chronic wound fluids” value worked out at 95%.
Turning to `O=S(=O)(F)Cc1ccccc1` [PMSF, phenylmethylsulfonyl fluoride, reference compound], the “inhibition of protease activity of a chronic wound fluid” value in assay [5] (FIG. 4) is “not an effective inhibitor except at the highest concentration”. Besides, in assay [5] (FIG. 4, 500 μM), the “reduction of proteolytic activity” value is “approximately 65%”. Besides, the “effect on levels of protease activity at lower concentrations” value in assay [5] (FIG. 4, PMSF 500 μM and 50 μM) is reported as “slightly increase the levels of protease activity”. In addition, in assay [6], the “effect on proteolytic activity of open and chronic wound fluids” value is recorded as “did not significantly reduce the proteolytic activity; also recorded: did not reduce the levels of proteolytic activity”.
Regarding `CC(C)CC(CS)C(=O)N[C@@H](Cc1ccccc1)C(=O)N[C@@H](C)C(N)=O` (stereo partly drawn) [UL001], the “inhibition … in wound fluids” value in assay [6] is given as “very effectively”.
